We go through 2 molecules from US20230248776A1, “OSTEOBLASTS DIFFERENTIATED FROM MESENCHYMAL STEM CELLS AND COMPOSITION FOR TREATING BONE DISEASE COMPRISING SAME” (CEFO Co., Ltd., priority 2020, published 2023).

For this series, the system named is umbilical cord-derived mesenchymal stem cells. Kind of series: surfactant cytotoxicity and cell growth, CCK-8 in transwell. In kind it is cell-based. As for the experimental part: The toxicity of poloxamer (poloxamer 407, p407), sodium methyl cocoyl taurate (DIAPON K-SF), polyoxyethylene sorbitan monolaurate (Tween 20) or methylprednisolone, which are known as representative biocompatible surfactants, was confirmed.
Specifically, in the upper chamber in a transwell including a three-dimensional porous membrane, the surfactant p407, DIAPON K-SF or Tween 20 was respectively treated at 0, 0.5 1, 5 or 15% (v/v) and coated for 2 hours in the same manner as in [Example 2], and then, the umbilical cord-derived mesenchymal stem cells obtained in [Example 1] were seeded at 20,000 cells/cm^2. The cell growth medium was placed in the lower chamber and cultured for 3 days. On days 1, 2 and 3, the CCK-8 (Cat. CK04, DOJINDO) solution was added, and after 3 hours of reaction in a 37° C. CO2 incubator, absorbance was measured at 450 nm to analyze cytotoxicity (FIG. 4) and the degree of cell growth (FIG. 5).
Further, in a transwell including a three-dimensional porous membrane, the surfactant p407, methylprednisolone or Tween 20 was treated at a concentration of 4 mM in the upper chamber, and after coating for 2 hours in the same manner as in [Example 2], the umbilical cord-derived mesenchymal stem cells obtained in [Example 1] were seeded at 20,000 cell/cm^2. The cell growth medium was placed in the lower chamber and cultured for 3 days. On days 1, 2 and 3, the CCK-8 solution was added, and after 3 hours of reaction in a 37° C. CO2 incubator, absorbance was measured at 450 nm to analyze cytotoxicity (FIG. 6) and the degree of cell growth (FIG. 7).

Consider “sodium methyl cocoyl taurate [DIAPON K-SF]”, for which, under “surfactant 0, 0.5, 1, 5 or 15% (v/v) coating (FIG. 5)”, the “cell proliferation, CCK-8 day 1 to day 3” value was “cells did not proliferate”. The “cytotoxicity, CCK-8 day 1” value (surfactant 0, 0.5, 1, 5 or 15% (v/v) coating, day 1 (FIG. 4)) was “toxic to cells”.

As for `C[C@H]1C[C@@H]2[C@H]([C@@H](O)C[C@@]3(C)[C@H]2CC[C@]3(O)C(=O)CO)[C@@]2(C)C=CC(=O)C=C12` [methylprednisolone], where the note is “surfactant 4 mM coating (FIG. 7)”, the “cell proliferation, CCK-8 day 1 to day 3” value is “cells did not proliferate”. Further, the “cytotoxicity, CCK-8 day 1” value (surfactant 4 mM coating, day 1 (FIG. 6)) is “toxic to cells”.
